Experimental data as given in US12077503B2, “Substituted cyclic amides and their use as herbicides” (FMC CORPORATION, priority 2015, dated 2024).

Columns and labels:
Assay type in all cases: in vivo
[1] = system: ragweed (common ragweed, Ambrosia elatior); assay: Test A postemergence
Description: (§1) Seeds of plant species selected from barnyardgrass (Echinochloa crus-galli), Kochia (Kochia scoparia), ragweed (common ragweed, Ambrosia elatior), ryegrass, Italian (Italian ryegrass, Lolium multiflorum), crabgrass, large (Digitaria sanguinalis), giant foxtail (Setaria faberii), green foxtail (Setaria viridis), morningglory (Ipomoea spp.), pigweed (Amaranthus retroflexus), velvetleaf (Abutilon theophrasti), wheat (Triticum aestivum), and corn (Zea mays) were planted into a blend of loam soil and sand and treated preemergence with a directed soil spray using test chemicals formulated in anon-phytotoxic solvent mixture which included a surfactant.
(§2) At the same time, plants selected from these crop and weed species and also blackgrass (Alopecurus myosuroides), and Galium (catchweed bedstraw, Galium aparine) were planted in pots containing the same blend of loam soil and sand and treated with postemergence applications of test chemicals formulated in the same manner. Plants ranged in height from 2 to 10 cm and were in the one- to two-leaf stage for the postemergence treatment. Treated plants and untreated controls were maintained in a greenhouse for approximately 10 d, after which time all treated plants were compared to untreated controls and visually evaluated for injury. Plant response ratings, summarized in Table A, are based on a 0 to 100 scale where 0 is no effect and 100 is complete control. A dash (-) response means no test result.

[2] = system: wheat (Triticum aestivum); assay: Test A postemergence
Description: as §1, §2

corn (Zea mays) = assay: Test A postemergence
Description: as §1, §2

Kochia (Kochia scoparia) [3] = assay: Test A postemergence
Description: as §1, §2

[4] = system: blackgrass (Alopecurus myosuroides); assay: Test A postemergence; conditions: for Blackgrass plant response rating: visual injury rating on 0 to 100 scale (0 no effect, 100 complete control), approx. 10 d
Description: as §1, §2

[5] = system: pigweed (Amaranthus retroflexus); assay: Test A postemergence
Description: as §1, §2

[6] = system: Galium (catchweed bedstraw, Galium aparine); assay: Test A postemergence
Description: as §1, §2

[7] = system: giant foxtail (Setaria faberii); assay: Test A postemergence
Description: as §1, §2

[8] = system: ryegrass, Italian (Italian ryegrass, Lolium multiflorum); assay: Test A postemergence
Description: as §1, §2

[9] = system: barnyardgrass (Echinochloa crus-galli); assay: Test A postemergence; conditions: for Barnyardgrass plant response rating: visual injury rating on 0 to 100 scale (0 no effect, 100 complete control), approx. 10 d
Description: as §1, §2

[10] = system: ragweed (common ragweed, Ambrosia elatior); assay: Test A preemergence; conditions: for Plant response rating, Ragweed: 125 g ai/ha; for Ragweed plant response rating (0 to 100 scale, 0 is no effect, 100 is complete control): 500 g ai/ha, visual injury approx. 10 d
Description: as §1, §2

Kochia (Kochia scoparia) [11] = assay: Test A preemergence; conditions: for Plant response rating, Kochia: 125 g ai/ha; for Kochia plant response rating (0 to 100 scale, 0 is no effect, 100 is complete control): 500 g ai/ha, visual injury approx. 10 d
Description: as §1, §2

[12] = system: pigweed (Amaranthus retroflexus); assay: Test A preemergence; conditions: for Plant response rating, Pigweed: 125 g ai/ha; for Pigweed plant response rating (0 to 100 scale, 0 is no effect, 100 is complete control): 500 g ai/ha, visual injury approx. 10 d
Description: as §1, §2

[13] = system: giant foxtail (Setaria faberii); assay: Test A preemergence; conditions: for Plant response rating, Foxtail, Giant: 125 g ai/ha; for Foxtail, Giant plant response rating (0 to 100 scale, 0 is no effect, 100 is complete control): 500 g ai/ha, visual injury approx. 10 d
Description: as §1, §2

[14] = system: ryegrass, Italian (Italian ryegrass, Lolium multiflorum); assay: Test A preemergence; conditions: for Plant response rating, Ryegrass, Italian: 125 g ai/ha; for Ryegrass, Italian plant response rating (0 to 100 scale, 0 is no effect, 100 is complete control): 500 g ai/ha, visual injury approx. 10 d
Description: as §1, §2

[15] = system: barnyardgrass (Echinochloa crus-galli); assay: Test A preemergence; conditions: for Plant response rating, Barnyardgrass: 125 g ai/ha; for Barnyardgrass plant response rating (0 to 100 scale, 0 is no effect, 100 is complete control): 500 g ai/ha, visual injury approx. 10 d
Description: as §1, §2

[16] = 125 g ai/ha, postemergence, visual rating after approx. 10 d, 0 to 100 scale (0 no effect, 100 complete control)
[17] = Postemergence, 500 g ai/ha, 0 to 100 scale where 0 is no effect and 100 is complete control
[18] = Preemergence, visual injury after approximately 10 d, 0 to 100 scale where 0 is no effect and 100 is complete control
[19] = 125 g ai/ha, postemergence, visual injury rating on 0 to 100 scale (0 no effect, 100 complete control), approx. 10 d
[20] = 500 g ai/ha, postemergence, 0 to 100 scale, 0 no effect, 100 complete control
[21] = preemergence, 0 to 100 scale (0 no effect, 100 complete control)

O=C(Nc1cccc(F)c1F)C1C(=O)N(CC=CBr)CC1c1cccc(C(F)(F)F)c1 (stereo not drawn) [Compound 527]
Plant response rating, Ragweed [1, 16]: 0 | Plant response rating, Ragweed [1, 17]: 0 | Plant response rating, Wheat [2, 16]: 0 | Plant response rating, Wheat [2, 17]: 0 | Plant response rating, Corn (corn (Zea mays); [16]): 0 | Plant response rating, Corn (corn (Zea mays); [17]): 0 | Plant response rating, Kochia (Kochia (Kochia scoparia) [3]; [16]): 0 | Plant response rating, Kochia (Kochia (Kochia scoparia) [3]; [17]): 0 | Blackgrass plant response rating ([4]; 125 g ai/ha, postemergence): 0 | Plant response rating, Blackgrass [4, 17]: 0 | Plant response rating, Pigweed [5, 16]: 0 | Plant response rating, Pigweed [5, 17]: 0 | Plant response rating, Galium [6, 16]: 0 | Plant response rating, Galium [6, 17]: 0 | Plant response rating, Foxtail, Giant [7, 16]: 0 | Plant response rating, Foxtail, Giant [7, 17]: 20 | Plant response rating, Ryegrass, Italian [8, 16]: 0 | Plant response rating, Ryegrass, Italian [8, 17]: 0 | Barnyardgrass plant response rating ([9]; 125 g ai/ha, postemergence): 0 | Plant response rating, Barnyardgrass [9, 17]: 20 | Plant response rating, Ragweed [10, 18]: 0 | Ragweed plant response rating (0 to 100 scale, 0 is no effect, 100 is complete control) ([10]; Preemergence): 0 | Plant response rating, Kochia (Kochia (Kochia scoparia) [11]; [18]): 0 | Kochia plant response rating (0 to 100 scale, 0 is no effect, 100 is complete control) (Kochia (Kochia scoparia) [11]; Preemergence): 0 | Plant response rating, Pigweed [12, 18]: 0 | Pigweed plant response rating (0 to 100 scale, 0 is no effect, 100 is complete control) ([12]; Preemergence): 0 | Plant response rating, Foxtail, Giant [13, 18]: 80 | Foxtail, Giant plant response rating (0 to 100 scale, 0 is no effect, 100 is complete control) ([13]; Preemergence): 80 | Plant response rating, Ryegrass, Italian [14, 18]: 0 | Ryegrass, Italian plant response rating (0 to 100 scale, 0 is no effect, 100 is complete control) ([14]; Preemergence): 0 | Plant response rating, Barnyardgrass [15, 18]: 0 | Barnyardgrass plant response rating (0 to 100 scale, 0 is no effect, 100 is complete control) ([15]; Preemergence): 20

Cc1c(F)cccc1NC(=O)C1C(=O)N(C)CC1c1cccc(C(F)(F)F)c1 (stereo not drawn) [Compound 573]
Plant response rating, Ragweed [1, 16]: 20 | Plant response rating, Ragweed [1, 17]: 60 | Plant response rating, Wheat [2, 16]: 70 | Plant response rating, Wheat [2, 17]: 70 | Plant response rating, Corn (corn (Zea mays); [16]): 80 | Plant response rating, Corn (corn (Zea mays); [17]): 90 | Plant response rating, Kochia (Kochia (Kochia scoparia) [3]; [16]): 50 | Plant response rating, Kochia (Kochia (Kochia scoparia) [3]; [17]): 60 | Plant response rating, Blackgrass [4, 16]: 70 | Plant response rating, Blackgrass [4, 17]: 70 | Plant response rating, Pigweed [5, 16]: 30 | Plant response rating, Pigweed [5, 17]: 40 | Plant response rating, Galium [6, 16]: 60 | Plant response rating, Galium [6, 17]: 70 | Plant response rating, Foxtail, Giant [7, 16]: 90 | Plant response rating, Foxtail, Giant [7, 17]: 90 | Plant response rating, Ryegrass, Italian [8, 16]: 70 | Plant response rating, Ryegrass, Italian [8, 17]: 90 | Plant response rating, Barnyardgrass [9, 16]: 90 | Plant response rating, Barnyardgrass [9, 17]: 100 | Plant response rating, Ragweed [10, 18]: 0 | Ragweed plant response rating (0 to 100 scale, 0 is no effect, 100 is complete control) ([10]; Preemergence): 50 | Plant response rating, Kochia (Kochia (Kochia scoparia) [11]; [18]): 70 | Kochia plant response rating (0 to 100 scale, 0 is no effect, 100 is complete control) (Kochia (Kochia scoparia) [11]; Preemergence): 80 | Plant response rating, Pigweed [12, 18]: 40 | Pigweed plant response rating (0 to 100 scale, 0 is no effect, 100 is complete control) ([12]; Preemergence): 80 | Plant response rating, Foxtail, Giant [13, 18]: 90 | Foxtail, Giant plant response rating (0 to 100 scale, 0 is no effect, 100 is complete control) ([13]; Preemergence): 100 | Plant response rating, Ryegrass, Italian [14, 18]: 80 | Ryegrass, Italian plant response rating (0 to 100 scale, 0 is no effect, 100 is complete control) ([14]; Preemergence): 90 | Plant response rating, Barnyardgrass [15, 18]: 90 | Barnyardgrass plant response rating (0 to 100 scale, 0 is no effect, 100 is complete control) ([15]; Preemergence): 100

COC(=O)c1ccccc1NC(=O)C1C(=O)NCC1c1ccc(F)c(F)c1 (stereo not drawn) [Compound 417]
Ragweed plant response rating [1, 19]: 0 | Plant response rating, Ragweed [1, 20]: 0 | Wheat plant response rating [2, 19]: 0 | Plant response rating, Wheat [2, 20]: 0 | Corn plant response rating (corn (Zea mays); [19]): 0 | Plant response rating, Corn (corn (Zea mays); [20]): 0 | Kochia plant response rating (Kochia (Kochia scoparia) [3]; [19]): 0 | Plant response rating, Kochia (Kochia (Kochia scoparia) [3]; [20]): 0 | Blackgrass plant response rating ([4]; 125 g ai/ha, postemergence): 0 | Plant response rating, Blackgrass [4, 20]: 0 | Pigweed plant response rating [5, 19]: 0 | Plant response rating, Pigweed [5, 20]: 0 | Galium plant response rating [6, 19]: 0 | Plant response rating, Galium [6, 20]: 0 | Foxtail, Giant plant response rating [7, 19]: 0 | Plant response rating, Foxtail, Giant [7, 20]: 0 | Ryegrass, Italian plant response rating [8, 19]: 0 | Plant response rating, Ryegrass, Italian [8, 20]: 0 | Barnyardgrass plant response rating ([9]; 125 g ai/ha, postemergence): 0 | Plant response rating, Barnyardgrass [9, 20]: 0 | Plant response rating, Ragweed [10, 21]: 0 | Ragweed plant response rating (0 to 100 scale, 0 is no effect, 100 is complete control) ([10]; Preemergence): 0 | Plant response rating, Kochia (Kochia (Kochia scoparia) [11]; [21]): 0 | Kochia plant response rating (0 to 100 scale, 0 is no effect, 100 is complete control) (Kochia (Kochia scoparia) [11]; Preemergence): 0 | Plant response rating, Pigweed [12, 21]: 0 | Pigweed plant response rating (0 to 100 scale, 0 is no effect, 100 is complete control) ([12]; Preemergence): 0 | Plant response rating, Foxtail, Giant [13, 21]: 0 | Foxtail, Giant plant response rating (0 to 100 scale, 0 is no effect, 100 is complete control) ([13]; Preemergence): 0 | Plant response rating, Ryegrass, Italian [14, 21]: 0 | Ryegrass, Italian plant response rating (0 to 100 scale, 0 is no effect, 100 is complete control) ([14]; Preemergence): 0 | Plant response rating, Barnyardgrass [15, 21]: 0 | Barnyardgrass plant response rating (0 to 100 scale, 0 is no effect, 100 is complete control) ([15]; Preemergence): 0
